Measurements from the Kinase Knowledgebase extract (Sharma et al. 2016).

target: PIK3CG (human) (UniProt P48736); experiment: Inhibition of PIK3CG Kinase Activity
Sequence (P48736 whole entry, looked up): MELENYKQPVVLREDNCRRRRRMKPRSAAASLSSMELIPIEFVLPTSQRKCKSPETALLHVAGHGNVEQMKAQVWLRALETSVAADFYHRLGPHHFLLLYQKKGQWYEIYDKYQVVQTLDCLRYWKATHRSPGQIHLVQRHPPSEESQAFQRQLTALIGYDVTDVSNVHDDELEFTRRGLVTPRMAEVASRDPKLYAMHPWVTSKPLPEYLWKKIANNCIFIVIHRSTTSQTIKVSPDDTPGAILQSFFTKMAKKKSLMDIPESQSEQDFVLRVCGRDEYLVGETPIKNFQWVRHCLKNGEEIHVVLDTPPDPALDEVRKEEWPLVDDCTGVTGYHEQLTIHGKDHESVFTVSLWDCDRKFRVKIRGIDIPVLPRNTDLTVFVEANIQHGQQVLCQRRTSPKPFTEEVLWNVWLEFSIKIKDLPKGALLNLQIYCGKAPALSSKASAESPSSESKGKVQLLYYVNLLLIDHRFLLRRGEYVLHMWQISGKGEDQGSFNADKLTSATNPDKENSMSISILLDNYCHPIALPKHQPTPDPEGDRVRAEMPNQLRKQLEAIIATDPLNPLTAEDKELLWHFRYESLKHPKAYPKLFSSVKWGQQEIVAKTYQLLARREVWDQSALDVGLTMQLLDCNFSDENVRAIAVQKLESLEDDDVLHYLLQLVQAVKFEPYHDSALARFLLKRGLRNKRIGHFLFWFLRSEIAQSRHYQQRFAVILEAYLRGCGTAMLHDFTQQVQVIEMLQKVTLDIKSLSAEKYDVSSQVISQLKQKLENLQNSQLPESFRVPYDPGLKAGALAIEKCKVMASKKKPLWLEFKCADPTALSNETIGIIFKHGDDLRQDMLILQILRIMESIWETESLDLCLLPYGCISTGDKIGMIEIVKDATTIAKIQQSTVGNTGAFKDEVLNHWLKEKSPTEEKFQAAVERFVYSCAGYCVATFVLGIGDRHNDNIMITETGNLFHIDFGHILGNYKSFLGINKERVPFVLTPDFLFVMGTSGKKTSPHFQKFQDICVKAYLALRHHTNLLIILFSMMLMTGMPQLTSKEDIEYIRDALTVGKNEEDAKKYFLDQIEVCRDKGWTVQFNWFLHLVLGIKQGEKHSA

| SMILES | IC50 [nM] |
| --- | --- |
| COc1ccc2oc(C(=O)Nc3nnn[nH]3)c(OC3CCC(C)C(C)C3)c2c1 (centres undefined) | 76 |
| COc1ccc2oc(C(=O)Nc3nnn[nH]3)c(OCC3CCCC3)c2c1 | 160 |
| COc1ccc2oc(C(=O)Nc3nnn[nH]3)c(OC3CCC4CCCCC4C3)c2c1 (centres undefined) | 325 |
| COc1ccc2oc(C(=O)Nc3nnn[nH]3)c(OC3CCOCC3)c2c1 | 1180 |
| COc1ccc2oc(C(=O)Nc3nnn[nH]3)c(OC3CCCCCCC3)c2c1 | 185 |
| COc1ccc2oc(C(=O)Nc3nnn[nH]3)c(OCC3CC=CCC3C)c2c1 (centres undefined) | 185 |
| COc1ccc2oc(C(=O)Nc3nnn[nH]3)c(OCC3(C)CC3)c2c1 | 220 |
| COc1ccc2oc(C(=O)Nc3nnn[nH]3)c(OCC3C4CCC(C4)C3C)c2c1 (centres undefined) | 67 |
| CCC1(COc2c(C(=O)Nc3nnn[nH]3)oc3ccc(OC)cc23)COC1 | 1460 |
| COc1ccc2oc(C(=O)Nc3nnn[nH]3)c(OCC3CCCCCC3)c2c1 | 108 |
| COc1ccc2oc(C(=O)Nc3nnn[nH]3)c(OC(C)C3CC3)c2c1 (centres undefined) | 1460 |
| CC1(OCOc2c(C(=O)Nc3nnn[nH]3)oc3ccc(Cl)cc23)CC1 | 1460 |
| COc1ccc2oc(C(=O)Nc3nnn[nH]3)c(OC3CC4CCC3C4)c2c1 (centres undefined) | 335 |
| COc1ccc2oc(C(=O)Nc3nnn[nH]3)c(OCC3CCCCC3)c2c1 | 840 |
| O=C(Nc1nnn[nH]1)c1oc2ccc(Cl)cc2c1OC1CCCC1 | 3320 |
| COc1ccc2oc(C(=O)Nc3nnn[nH]3)c(OCC3CC=CCC3)c2c1 (centres undefined) | 315 |
| COc1ccc2oc(C(=O)Nc3nnn[nH]3)c(OC3CCCCCC3)c2c1 | 97 |
| COc1ccc2oc(C(=O)Nc3nnn[nH]3)c(OC3CC(C)CCC3C)c2c1 (centres undefined) | 370 |
| CCC(Oc1c(C(=O)Nc2nnn[nH]2)oc2ccc(OC)cc12)C1CCCCC1 (centres undefined) | 305 |
| COc1ccc2oc(C(=O)Nc3nnn[nH]3)c(OC3CCCCC3)c2c1 | 255 |
| COc1ccc2oc(C(=O)Nc3nnn[nH]3)c(OCC3CCC3)c2c1 | 175 |
| COc1ccc2oc(C(=O)Nc3nnn[nH]3)c(OC3CCC3)c2c1 | 400 |
| COc1ccc2oc(C(=O)Nc3nnn[nH]3)c(OC3CC(C)CC(C)C3)c2c1 (centres undefined) | 41 |
| COc1ccc2oc(C(=O)Nc3nnn[nH]3)c(OC(C)C3CCCC3)c2c1 (centres undefined) | 150 |
| COc1ccc2oc(C(=O)Nc3nnn[nH]3)c(OC3CCCC3)c2c1 | 1050 |
| COc1ccc2oc(C(=O)Nc3nnn[nH]3)c(OC3CCC(C4CCCCC4)CC3)c2c1 (centres undefined) | 380 |
| COc1ccc2oc(C(=O)Nc3nnn[nH]3)c(OCC3CC3)c2c1 | 690 |
| COc1ccc2oc(C(=O)Nc3nnn[nH]3)c(OCC3(C)COC3)c2c1 | 3640 |
| COc1ccc2oc(C(=O)Nc3nnn[nH]3)c(OC3CC(C)CC3C)c2c1 (centres undefined) | 290 |
